This test deals with SREBP-1c promoter. Description: SREBP-1c promoter dual luciferase reporter assay in HEK293T cells with RXRα/LXRα ligands. Conditions: ligand(s) in culture solution for 24 hours, firefly relative to Renilla luciferase. It counts as cell-based, human. The source says: A genome DNA fragment coding the SREBP-1c promoter region (located in residues −410 to +24 base region) from mouse genome was amplified, and the resulting fragment was inserted into KpnI and HindIII sites in pGL3-Basic (manufactured by Promega Corporation), to give pGL3-SREBP-1cPro (FIG. 4a).
Human embryonic kidney cells (HEK293T: cell expressing endogenous […] ) were transformed with the control plasmid coding pGL3-srebp-1cPro and Renilla luciferase (manufactured by Promega Corporation) and together with any one plasmid of (i) vacant plasmid, (ii) plasmid coding the HCV core protein, (iii) plasmid coding RXRα and LXRα, and (iv) plasmid coding RXRα, LXRα and the HCV core protein. The transformant obtained was cultivated in a culture solution containing a RXRα's ligand 9-cis-retinoic acid (9cisRA; product of Sigma Corporation), a LXRα's ligand 22(R)-hydroxycholesterol (22(R)HC), or both of them as additives for 24 hours, and then, the cells were collected; the luciferase activity of the cells was determined, similarly to (1) above, by using the dual luciferase reporter assay system (manufactured by Promega Corporation).

On to `CC(C)CC[C@@H](O)[C@@H](C)[C@H]1CC[C@H]2[C@@H]3CC=C4C[C@@H](O)CC[C@]4(C)[C@H]3CC[C@]12C` [22(R)-hydroxycholesterol], for which the “SREBP-1c promoter activity by the HCV core protein (luciferase activity)” value is “increase in SREBP-1c promoter activity”. Under 9-cis-retinoic acid stands “increase in SREBP-1c promoter activity”.
